≈ marks a conversion by molar mass, not a printed value. Entries after “also recorded” stand apart in the source; their conditions may differ. Like-named read-outs stand apart in the source and are kept apart here.
What was measured:
[1] = tested on: P-glycoprotein (Pgp) in LS-180 cells; experiment: Pgp-induction assay, rhodamine123 (Rh123) cell exclusion method; assay type: cell-based; conditions: for EC50: LS180 cells treated 48 h, Rh123 fluorescence vs concentration
Description: All synthesized compounds were screened for their ability to induce Pgp using rhodamine123 (Rh123) cell exclusion method. In this method, the Pgp function was evaluated in terms of rhodamine 123 (Rh123) accumulations and efflux. Briefly, the protocol used is as follows: Colorectal LS-180 cells [obtained from ECACC (European Collection of Cell Cultures) catalogue number: 87021202; passage number 52] were seeded at a density of 2×10^4 per well of 96 well plate and were allowed to grow for next 24 h. Cells were further incubated with the test compounds, and were diluted to a final concentration of 100 nM and rifampicin (standard) to a final concentration of 10 μM in complete media for 48 h. The final concentration of DMSO was kept at 0.1%. Drugs were removed and cells were incubated with HANKS buffer for 40 minutes before further incubation with HANKS buffer (containing 10 μM of Rh123 as a Pgp substrate) for 90 minutes. At the end of Rh123 treatment cells were washed four times with cold PBS followed by cell lysis for 1 h by using 200 μl of lysis buffer (0.1% Triton X-100 and 0.2 N NaOH). A total of 100 μl of lysate was used for reading fluorescence of Rh123 at 485 nm/529 nm. Samples were normalized by dividing fluorescence of each sample with total protein present in the lysate. For EC50 determination, different concentrations of compound were used to treat LS180 cells for 48 h. The EC50 value was determined by plotting fluoroscence of Rh123 against concentration of compound.

[2] = Thermodynamic equilibrium solubility; assay type: physicochemical; conditions: for solubility: 25 °C, thermodynamic from solid
Description: The compounds were first dissolved in methanol to prepare stock solutions (100 and 1000 μg/mL). Different concentrations of stock solutions were pipetted into the 96-well plates and the solvent was evaporated to ensure that solid drug was present in the beginning of the experiment. […] The plates were kept overnight for equilibration of drug in medium. Later, the plates were centrifuged at 3000 rpm for 15 min (Jouan centrifuge BR4i). Supernatant (50 μl) was pipetted into UV 96-well plates (Corning® 96 Well Clear Flat Bottom UV-Transparent Microplate) for analyses with plate reader (SpectraMax Plus384) at λmax of 350 nm. The analyses were performed in triplicate for each compound. The solubility curve of concentration (ng/mL) vs absorbance was plotted to find out saturation point and the corresponding concentration was noted.

HMG-Co A reductase = conditions: HepG2 (hepatocellular carcinoma) cells; read-out: IC50, reduction of HMG-Co A reductase activity; cited from earlier work
rabbit PXR = target: T1, rabbit PXR (Oryctolagus cuniculus, UniProt Q9TU02); conditions: read-out: EC50, activation of rabbit PXR; cited from earlier work
T1 sequence (Q9TU02 1-411): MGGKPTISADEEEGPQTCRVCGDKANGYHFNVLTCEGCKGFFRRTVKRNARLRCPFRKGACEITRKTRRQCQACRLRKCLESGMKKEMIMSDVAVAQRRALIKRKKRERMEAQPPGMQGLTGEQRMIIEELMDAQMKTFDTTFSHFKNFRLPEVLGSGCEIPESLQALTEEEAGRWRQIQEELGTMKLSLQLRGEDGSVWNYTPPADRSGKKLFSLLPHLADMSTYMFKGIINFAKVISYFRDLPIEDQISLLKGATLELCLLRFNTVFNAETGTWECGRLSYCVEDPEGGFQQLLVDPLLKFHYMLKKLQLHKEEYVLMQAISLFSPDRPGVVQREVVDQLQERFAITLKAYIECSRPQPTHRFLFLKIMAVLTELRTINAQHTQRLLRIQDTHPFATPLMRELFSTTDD

rat PXR = target: T2, rat PXR (Rattus norvegicus, UniProt Q9R1A7); conditions: cited from earlier work
T2 sequence (Q9R1A7 1-431): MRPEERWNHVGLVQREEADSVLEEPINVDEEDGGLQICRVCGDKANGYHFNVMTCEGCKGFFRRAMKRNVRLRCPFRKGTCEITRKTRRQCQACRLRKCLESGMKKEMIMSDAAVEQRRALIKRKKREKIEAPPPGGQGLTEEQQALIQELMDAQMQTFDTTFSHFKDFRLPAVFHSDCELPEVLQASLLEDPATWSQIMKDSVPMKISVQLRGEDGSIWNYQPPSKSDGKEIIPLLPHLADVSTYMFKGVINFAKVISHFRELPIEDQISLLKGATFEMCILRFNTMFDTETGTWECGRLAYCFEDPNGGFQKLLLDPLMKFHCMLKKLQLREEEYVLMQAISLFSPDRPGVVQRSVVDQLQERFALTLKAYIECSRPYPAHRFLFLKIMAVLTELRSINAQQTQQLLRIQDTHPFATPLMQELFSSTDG

mouse PXR = target: T3, mouse PXR (Mus musculus, UniProt O54915); conditions: cited from earlier work
T3 sequence (O54915 1-431): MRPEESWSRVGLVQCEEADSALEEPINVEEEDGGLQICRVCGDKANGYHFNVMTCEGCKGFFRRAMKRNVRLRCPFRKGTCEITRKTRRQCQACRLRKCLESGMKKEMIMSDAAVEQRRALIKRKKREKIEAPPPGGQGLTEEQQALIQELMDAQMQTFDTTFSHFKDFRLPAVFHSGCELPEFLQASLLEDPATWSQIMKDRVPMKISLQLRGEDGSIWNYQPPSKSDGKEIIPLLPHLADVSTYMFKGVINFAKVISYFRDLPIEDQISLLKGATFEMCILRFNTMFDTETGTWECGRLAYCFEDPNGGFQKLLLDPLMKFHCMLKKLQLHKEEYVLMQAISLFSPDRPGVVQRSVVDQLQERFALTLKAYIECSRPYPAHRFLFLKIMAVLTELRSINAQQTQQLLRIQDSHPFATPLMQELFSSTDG

CYP3A4 = conditions: rat hepatocytes; cited from earlier work
[3] = tested on: p-glycoprotein expression in LS-180 cells; experiment: Western blot analysis of Pgp expression; assay type: cell-based
Description: Protein was measured employing Bio-Rad protein assay kit using bovine serum albumin as standard. Proteins aliquots (70 μg) were resolved on SDS-PAGE and then electro transferred to PVDF membrane overnight at 4° C. at 30V. Nonspecific binding was blocked by incubation with 5% non-fat milk in Tris-buffered saline containing 0.1% Tween-20 (TBST) for 1 h at room temperature. The blots were probed with anti-Pgp antibody for 4 h and washed three times with TBST. Blot was then incubated with horseradish peroxidase conjugated antimouse secondary antibody for 1 h, washed again three times with TBST and signals detected using ECL plus chemiluminescence's kit on BioRad ChemiDoc XRS system.

Compound | EC50 [1] [nM] | solubility ([2]; water, 25±1° C., read-out: Solubility, Water) [µg/mL] | solubility ([2]; phosphate buffer saline (PBS), aqueous buffer, read-out: Solubility, PBS) [µg/mL] | solubility ([2]; simulated gastric fluid (SGF), simulated gastric fluid, read-out: Solubility, SGF) [µg/mL] | solubility ([2]; simulated intestinal fluid (SIF), fassgf or other biorelevant, read-out: Solubility, SIF) [µg/mL] | IC50 (HMG-Co A reductase) [nM] | EC50 (rabbit PXR) [nM] | activation of rat PXR (rat PXR) | activation of mouse PXR (mouse PXR) | CYP3A4 protein levels (CYP3A4) | Pgp induction as decrease in % intracellular levels of rhodamine 123 ([1]; LS-180 cells, test compounds 100 nM, 48 h) | fold difference of EC50 versus SR12813 (1a) ([1]; Pgp induction EC50, LS180 cells) [fold] | p-glycoprotein expression (Western blot) [3] | Solubility, PBS ([2]; phosphate buffer saline (PBS)) [µg/mL] | Solubility, SGF ([2]; simulated gastric fluid (SGF)) [µg/mL] | Solubility, SIF ([2]; simulated intestinal fluid (SIF)) [µg/mL] | solubility in words ([2]; water and biological fluids) | Solubility, Water ([2]; water, 25±1° C.) [µg/mL]
CCOP(=O)(OCC)C(=Cc1cc(C(C)(C)C)c(O)c(C(C)(C)C)c1)P(=O)(OCC)OCC [Compound 1a] | 2.04 | 200 (≈ 396 µM) | 200 (≈ 396 µM) | 200 (≈ 396 µM) | 200 (≈ 396 µM) | 850 | ~700 | very weak activator | very weak activator | increase CYP3A4 protein levels |  |  |  |  |  |  |  | 
CCOP(=O)(OCC)C(=Cc1c2ccccc2cc2ccccc12)P(=O)(OCC)OCC [Compound 1l, Tetraethyl 2-(anthracene-10-yl) ethene-1,1-diyldiphosphonate] | 0.9 |  |  |  |  |  |  |  |  |  | decreased; also recorded: promising induction of p-glycoprotein | 2 | induces p-glycoprotein expression | >1500 | >1500 | >1500 | optimal solubility | 400 (≈ 840 µM)

From patent US10377781B2, “Alkylidene phosphonate esters as p-glycoprotein inducers” (Council of Scientific & Industrial Research, priority 2014, dated 2019)
